Experiments:
[1] = Release of excipient from the simulated injection site, HPLC of bath aliquots; type: in vitro ADME; details: excipient of generic insulin formulation, 0.5 ml injected; buffer in the cassette
Description: Shortly after injection, the protein solubility level decreased as indicated by the drop in % T. As the environment within the cassette equilibrated with the surrounding physiological conditions and the pH shifted towards 7.4, the protein re-solubilised as indicated by the increase in the % T level. The release profile of an excipient, m-cresol, from the injection site was determined from aliquots taken from the surrounding buffer bath at different time points by HPLC following the method specified in “Biodegradation characterisation and kinetics of m-cresol by Lysinibacillus cresolivorans” in Water SA (Online) vol. 37 no. 1 Pretoria January 2011.

[2] = Diffusion through the DERMAROLLER-modified 14000 MWCO dialysis membrane; type: physicochemical; details: modified membrane with cut off of 14000 MWCO
Description: As an example, the membrane used in the system was Biodesing dialysis tubing with a molecular weight cut off diameter of 14000 Da. A 3 cm piece of the tubing was cut and the edges were removed to form two sheets of membrane. These sheets of membrane, whilst not separated from each other, were fully hydrated by soaking in deionised water and subsequently placed on Styrofoam covered with aluminium foil. The membrane permeability was then modified using a DERMAROLLER microneedle device. The membrane used can be transparent. […] In contrast, for rhodamine (MW~500 Da) the diffusion through the same membrane took place in one phase. The holes can be made with a DERMAROLLER microneedle device, or with any other method producing size and spatial distribution of holes suitable for the application. The diameter of the holes should be between 0.1 and a 10 micrometers and the spacing between any two adjacent holes between 0.1 and 10 mm.
As an example (FIG. 4), for a series of fluorescent small organic molecules (methylene blue and rhodamine) and fluorescently labelled dextrans with molecular weights between 4 kDa and 2 MDa, the rate constant of diffusion (k, [min^−1]) through the membranes after the modification followed the equation k=−0.01362 log10 (MW of the compound)+0.06065. (R^2=0.9996)

## Cc1cccc(O)c1 [m-cresol]
[1]
  time until all the excipient in the injected formulation has left the injection site: less than 50 minutes

## CN(C)c1ccc2nc3ccc(=[N+](C)C)cc-3sc2c1 [methylene blue]
[2]
  mode of diffusion through the modified membrane: two phase diffusion

## rhodamine
[2]
  mode of diffusion through the modified membrane: one phase

— US9733254B2, “Methods and apparatus for the in vitro modelling of drug administration” (THE UNIVERSITY OF BATH, priority 2012, dated 2017)
